Patent publication US9481659B2, “Selective heterocyclic sphingosine 1 phosphate receptor modulators” (Celgene International II SÀRL, priority 2011, dated 2016)
Structures can show the parent of a compound that is named as a salt.

Target: S1P1/EDG1 (Homo sapiens, UniProt P21453)
Assay: S1P1 CRE-bla CHOK1 reporter assay, inhibition of Forskolin induced cAMP
Type: cell-based
Conditions: agonist activity range; S1P1 CRE-bla CHOK1 cells, 2 μM Forskolin; read-out: S1P1 ACTIVITY
Summary of the method: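 CRE-bla CHO K1 cells stably expressing human S1P1 were treated 4 hrs at 37° C with 10-point compound dilutions plus 2 μM Forskolin. Inhibition of cAMP-driven β-lactamase reporter was read with a FRET substrate loaded 2 hrs at room temperature.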

S1P1/EDG1, sequence (P21453 whole entry): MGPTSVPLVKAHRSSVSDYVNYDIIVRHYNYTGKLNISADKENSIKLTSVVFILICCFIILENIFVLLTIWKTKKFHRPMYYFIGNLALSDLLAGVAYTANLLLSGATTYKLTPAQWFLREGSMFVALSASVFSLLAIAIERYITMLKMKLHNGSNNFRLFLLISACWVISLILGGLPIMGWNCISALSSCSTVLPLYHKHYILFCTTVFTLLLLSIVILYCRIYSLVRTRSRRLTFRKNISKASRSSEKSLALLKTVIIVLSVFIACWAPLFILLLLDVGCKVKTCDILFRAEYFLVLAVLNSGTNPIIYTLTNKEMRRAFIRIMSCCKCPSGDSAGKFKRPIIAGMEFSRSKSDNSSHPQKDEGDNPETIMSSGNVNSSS

Row | Structure (SMILES) | EC50 [nM]
1 | COC(=O)CS(=O)(=O)N[C@H]1CCCc2c(-c3nnc(-c4ccc(OC(C)C)c(C#N)c4)s3)cccc21 [Compound 284, (S)-methyl 2-(N-(5-(5-(3-cyano-4-isopropoxyphenyl)-1,3,4-thiadiazol-2-yl)-1,2,3,4-tetrahydronaphthalen-1-yl)sulfamoyl)acetate] | 0.5 to 5
2 | COCCS(=O)(=O)N[C@@H]1CCCc2c(-c3cnc(-c4ccc(OC(C)C)c(C#N)c4)s3)cccc21 [Compound 285] | 0.5 to 5
3 | CCOC(=O)CCS(=O)(=O)N[C@H]1CCCc2c(-c3nnc(-c4ccc(OC(C)C)c(C#N)c4)s3)cccc21 [Compound 286, (S)-ethyl 3-(N-(5-(5-(3-cyano-4-isopropoxyphenyl)-1,3,4-thiadiazol-2-yl)-1,2,3,4-tetrahydronaphthalen-1-yl)sulfamoyl)propanoate] | 0.05 to 0.5
4 | CC(C)Oc1ccc(-c2nnc(-c3cccc4c3CCC[C@H]4NS(=O)(=O)CC(=O)O)s2)cc1C#N [Compound 287, (R)-2-(N-(5-(5-(3-cyano-4-isopropoxyphenyl)-1,3,4-thiadiazol-2-yl)-1,2,3,4-tetrahydronaphthalen-1-yl)sulfamoyl)acetic acid] | 0.05 to 0.5
5 | CC(C)Oc1ccc(-c2nnc(-c3cccc4c3CCC[C@@H]4NS(=O)(=O)CC(=O)O)s2)cc1C#N [Compound 288, (S)-2-(N-(5-(5-(3-cyano-4-isopropoxyphenyl)-1,3,4-thiadiazol-2-yl)-1,2,3,4-tetrahydronaphthalen-1-yl)sulfamoyl) acetic acid] | 0.05 to 0.5
6 | CC(C)Oc1ccc(-c2nnc(-c3cccc4c3CCC[C@H]4NS(=O)(=O)CCO)s2)cc1C#N [Compound 289, (R)—N-(5-(5-(3-cyano-4-isopropoxyphenyl)-1,3,4-thiadiazol-2-yl)-1,2,3,4-tetrahydronaphthalen-1-yl)-2-hydroxyethanesulfonamide] | 0.05 to 0.5
7 | CC(C)Oc1ccc(-c2nnc(-c3cccc4c3CCC[C@@H]4NS(=O)(=O)CCO)s2)cc1C#N [Compound 290, (S)—N-(5-(5-(3-cyano-4-isopropoxyphenyl)-1,3,4-thiadiazol-2-yl)-1,2,3,4-tetrahydronaphthalen-1-yl)-2-hydroxyethanesulfonamide] | 0.05 to 0.5
8 | CC(C)Oc1ccc(-c2nnc(-c3cccc4c3CCC[C@@H]4NS(=O)(=O)CCCO)s2)cc1C#N [Compound 291] | 0.05 to 0.5
9 | CC(C)Oc1ccc(-c2nnc(-c3cccc4c3CCC[C@H]4NS(=O)(=O)CC(=O)N(C)C)s2)cc1C#N [Compound 292, (R)-2-(N-(5-(5-(3-cyano-4-isopropoxyphenyl)-1,3,4-thiadiazol-2-yl)-1,2,3,4-tetrahydronaphthalen-1-yl)sulfamoyl)-N,N-dimethylacetamide] | 0.05 to 0.5
10 | CC(C)Oc1ccc(-c2nnc(-c3cccc4c3CCC[C@@H]4NS(=O)(=O)CC(=O)N(C)C)s2)cc1C#N [Compound 293, (S)-2-(N-(5-(5-(3-cyano-4-isopropoxyphenyl)-1,3,4-thiadiazol-2-yl)-1,2,3,4-tetrahydronaphthalen-1-yl)sulfamoyl)-N,N-dimethylacetamide] | 0.05 to 0.5
11 | CNC(=O)CS(=O)(=O)N[C@@H]1CCCc2c(-c3nnc(-c4ccc(OC(C)C)c(C#N)c4)s3)cccc21 [Compound 294] | 0.05 to 0.5
12 | CNC(=O)CS(=O)(=O)N[C@H]1CCCc2c(-c3nnc(-c4ccc(OC(C)C)c(C#N)c4)s3)cccc21 [Compound 295] | 0.05 to 0.5
13 | CC(C)Oc1ccc(-c2nnc(-c3cccc4c3CCC[C@H]4NCCS(C)(=O)=O)s2)cc1C#N [Compound 296, (R)-2-isopropoxy-5-(5-(5-((2-(methylsulfonyl)ethyl)amino)-5,6,7,8-tetrahydronaphthalen-1-yl)-1,3,4-thiadiazol-2-yl)benzonitrile] | 0.05 to 0.5
14 | CC(C)Oc1ccc(-c2nnc(-c3cccc4c3CCC[C@@H]4NCCS(C)(=O)=O)s2)cc1C#N [Compound 297, (S)-2-isopropoxy-5-(5-(5-((2-(methylsulfonyl)ethyl)amino)-5,6,7,8-tetrahydronaphthalen-1-yl)-1,3,4-thiadiazol-2-yl)benzonitrile] | 0.5 to 5
15 | CNC(=O)CCS(=O)(=O)N[C@H]1CCCc2c(-c3nnc(-c4ccc(OC(C)C)c(C#N)c4)s3)cccc21 [Compound 298, (S)-3-(N-(5-(5-(3-cyano-4-isopropoxyphenyl)-1,3,4-thiadiazol-2-yl)-1,2,3,4-tetrahydronaphthalen-1-yl)sulfamoyl)-N-methylpropanamide] | 0.05 to 0.5
16 | CC(C)Oc1ccc(-c2nnc(-c3cccc4c3CCC[C@H]4NCCO)s2)cc1C#N [Compound 299, (R)-5-(5-(5-((2-hydroxyethyl)amino)-5,6,7,8-tetrahydronaphthalen-1-yl)-1,3,4-thiadiazol-2-yl)-2-isopropoxybenzonitrile] | 0.5 to 5

Row | Structure (SMILES) | EC50 [nM]
17 | CC(C)Oc1ccc(-c2nnc(-c3cccc4c3CCC[C@@H]4NCCO)s2)cc1C#N [Compound 300, (S)-5-(5-(5-((2-hydroxyethyl)amino)-5,6,7,8-tetrahydronaphthalen-1-yl)-1,3,4-thiadiazol-2-yl)-2-isopropoxybenzonitrile] | 0.05 to 0.5
18 | CC(C)Oc1ccc(-c2nnc(-c3cccc4c3CCC[C@H]4NCC(=O)O)s2)cc1C#N [Compound 301, (R)-2-((5-(5-(3-cyano-4-isopropoxyphenyl)-1,3,4-thiadiazol-2-yl)-1,2,3,4-tetrahydronaphthalen-1-yl)amino)acetic acid] | 0.05 to 0.5
19 | CC(C)Oc1ccc(-c2nnc(-c3cccc4c3CCC[C@@H]4NCC(=O)O)s2)cc1C#N [Compound 302, (S)-2-((5-(5-(3-cyano-4-isopropoxyphenyl)-1,3,4-thiadiazol-2-yl)-1,2,3,4-tetrahydronaphthalen-1-yl)amino)acetic acid] | 0.05 to 0.5
20 | CC(C)Oc1ccc(-c2nnc(-c3cccc4c3CCC[C@H]4NCC(=O)N3CCCC3)s2)cc1C#N [Compound 303, (R)-2-isopropoxy-5-(5-(5-((2-oxo-2-(pyrrolidin-1-yl)ethyl)amino)-5,6,7,8-tetrahydronaphthalen-1-yl)-1,3,4-thiadiazol-2-yl)benzonitrile] | 0.05 to 0.5
21 | CC(C)Oc1ccc(-c2nnc(-c3cccc4c3CCC[C@@H]4NCC(=O)N3CCCC3)s2)cc1C#N [Compound 304, (S)-2-isopropoxy-5-(5-(5-((2-oxo-2-(pyrrolidin-1-yl)ethyl)amino)-5,6,7,8-tetrahydronaphthalen-1-yl)-1,3,4-thiadiazol-2-yl)benzonitrile] | 0.5 to 5
22 | CNC(=O)CN[C@@H]1CCCc2c(-c3nnc(-c4ccc(OC(C)C)c(C#N)c4)s3)cccc21 [Compound 305] | 0.05 to 0.5
23 | CNC(=O)CN[C@H]1CCCc2c(-c3nnc(-c4ccc(OC(C)C)c(C#N)c4)s3)cccc21 [Compound 306] | 0.05 to 0.5
24 | CC(C)Oc1ccc(-c2nc(-c3cccc4c3CC[C@@H]4N)ns2)cc1C#N [Compound 307, (S)-5-(3-(1-amino-2,3-dihydro-1H-Inden-4-yl)-1,2,4-thiadiazol-5-yl)-2-isopropoxy benzonitrile hydrochloride] | 0.5 to 5
25 | CC(C)Oc1ccc(-c2nsc(-c3cccc4c3CC[C@@H]4N)n2)cc1C#N [Compound 308, (S)-5-(5-(1-amino-2,3-dihydro-1H-inden-4-yl)-1,2,4-thiadiazol-3-yl)-2-isopropoxy benzonitrile hydrochloride] | 0.5 to 5
26 | CC(C)Oc1ccc(-c2nc(-c3cccc4c3CC[C@@H]4NS(N)(=O)=O)ns2)cc1C#N [Compound 309, (S)—N-(4-(5-(3-cyano-4-isopropoxyphenyl)-1,2,4-thiadiazol-3-yl)-2,3-dihydro-1H-inden-1-yl) sulfamide] | 0.05 to 0.5
27 | CC(C)Oc1ccc(-c2nsc(-c3cccc4c3CC[C@@H]4NS(N)(=O)=O)n2)cc1C#N [Compound 310, (S)—N-(4-(3-(3-cyano-4-isopropoxyphenyl)-1,2,4-thiadiazol-5-yl)-2,3-dihydro-1H-inden-1-yl) sulfamide] | 0.05 to 0.5
28 | CC(C)Oc1ccc(-c2nc(-c3cccc4c3CC[C@@H]4NCCO)ns2)cc1C#N [Compound 311, (S)-5-(3-(1-(2-hydroxyethyl)amino)-2,3-dihydro-1H-inden-4-yl)-1,2,4-thiadiazol-5-yl)-2-isopropoxybenzonitrile hydrochloride] | 0.5 to 5
29 | CC(C)Oc1ccc(-c2nc(-c3cccc4c3CC[C@@H]4N(CCO)CCO)ns2)cc1C#N [Compound 312, (S)-5-(3-(1-(bis(2-hydroxyethyl)amino)-2,3-dihydro-1H-inden-4-yl)-1,2,4-thiadiazol-5-yl)-2-isopropoxybenzonitrile hydrochloride] | 0.5 to 5
30 | COC(=O)CS(=O)(=O)N[C@H]1CCc2c(-c3nsc(-c4ccc(OC(C)C)c(C#N)c4)n3)cccc21 [Compound 313, (S)-methyl 2-(N-(4-(5-(3-cyano-4-isopropoxyphenyl)-1,2,4-thiadiazol-3-yl)-2,3-dihydro-1H-inden-1-yl)sulfamoyl)acetate] | 0.05 to 0.5
31 | CC(C)Oc1ccc(-c2nc(-c3cccc4c3CC[C@@H]4NS(=O)(=O)CCO)ns2)cc1C#N [Compound 314, (S)—N-(4-(5-(3-cyano-4-isopropoxyphenyl)-1,2,4-thiadiazol-3-yl)-2,3-dihydro-1H-inden-1-yl)-2-hydroxyethanesulfonamide] | 0.5 to 5
